From ChEMBL document CHEMBL3864157, “The synthesis and antistaphylococcal activity of dehydroabietic acid derivatives: Modifications at C-12” (2016)
≈ marks a conversion by molar mass, not a printed value.

Legend:
Assay type in all cases: functional
Staphylococcus aureus [1] = experiment: Antibacterial activity against Staphylococcus aureus Newman
Staphylococcus aureus [2] = experiment: Antibacterial activity against linezolid-resistant Staphylococcus aureus NRS-271
Staphylococcus aureus [3] = experiment: Antibacterial activity against oxacillin/tetracycline-resistant Staphylococcus aureus NRS-100
Staphylococcus aureus [4] = experiment: Antibacterial activity against erythromycin-resistant Staphylococcus aureus NRS-70
Staphylococcus aureus [5] = experiment: Antibacterial activity against gentamicin-resistant Staphylococcus aureus NRS-108
Staphylococcus aureus [6] = experiment: Antibacterial activity against aminoglycosides/tetracycline-resistant Staphylococcus aureus NRS-1

Row | Compound | MIC (Staphylococcus aureus [1]) [µg/mL] | MIC (Staphylococcus aureus [2]) [µg/mL] | MIC (Staphylococcus aureus [3]) [µg/mL] | MIC (Staphylococcus aureus [4]) [µg/mL] | MIC (Staphylococcus aureus [5]) [µg/mL] | MIC (Staphylococcus aureus [6]) [µg/mL]
1 | C#CCON=C(c1ccc(Cl)cc1Cl)c1cc2c(cc1C(C)C)CC[C@H]1[C@](C)(C(=O)O)CCC[C@]21C | 1.56 to 3.13 (≈ 2.96 to 5.94 µM) | 12.5 to 25 (≈ 23.7 to 47.5 µM) | 12.5 to 25 (≈ 23.7 to 47.5 µM) | 1.56 to 3.13 (≈ 2.96 to 5.94 µM) | 12.5 (≈ 23.7 µM) | > 25
2 | C#CCON=C(c1cc2c(cc1C(C)C)CC[C@H]1[C@](C)(C(=O)O)CCC[C@]21C)c1ccccc1C(F)(F)F | 1.56 to 3.13 (≈ 2.97 to 5.95 µM) | > 25 | > 25 | > 25 | > 25 | > 25
3 | C=CCON=C(c1cc2c(cc1C(C)C)CC[C@H]1[C@](C)(C(=O)O)CCC[C@]21C)C1CCCCC1 | 12.5 to 25 (≈ 26.8 to 53.7 µM) | – | – | – | – | –
4 | CC(C)c1cc2c(cc1C(=NO)c1ccc(Cl)cc1Cl)[C@@]1(C)CCC[C@@](C)(C(=O)O)[C@@H]1CC2 | 1.56 to 3.13 (≈ 3.19 to 6.41 µM) | 1.56 to 3.13 (≈ 3.19 to 6.41 µM) | 3.13 (≈ 6.41 µM) | 1.56 to 3.13 (≈ 3.19 to 6.41 µM) | 1.56 to 3.13 (≈ 3.19 to 6.41 µM) | 3.13 (≈ 6.41 µM)
5 | CON=C(c1cc2c(cc1C(C)C)CC[C@H]1[C@](C)(C(=O)O)CCC[C@]21C)c1ccccc1C(F)(F)F | 0.39 to 0.78 (≈ 0.778 to 1.56 µM) | 1.56 to 3.13 (≈ 3.11 to 6.24 µM) | 3.13 to 6.25 (≈ 6.24 to 12.5 µM) | 1.56 to 3.13 (≈ 3.11 to 6.24 µM) | 6.25 to 12.5 (≈ 12.5 to 24.9 µM) | 3.13 to 6.25 (≈ 6.24 to 12.5 µM)
6 | CC(C)c1cc2c(cc1C(=NO)c1cccc(C(F)(F)F)c1)[C@@]1(C)CCC[C@@](C)(C(=O)O)[C@@H]1CC2 | 1.56 to 3.13 (≈ 3.2 to 6.42 µM) | 3.13 to 6.25 (≈ 6.42 to 12.8 µM) | 3.13 to 6.25 (≈ 6.42 to 12.8 µM) | 1.56 to 3.13 (≈ 3.2 to 6.42 µM) | 3.13 to 6.25 (≈ 6.42 to 12.8 µM) | 3.13 to 6.25 (≈ 6.42 to 12.8 µM)
7 | C#CCON=C(CCC)c1cc2c(cc1C(C)C)CC[C@H]1[C@](C)(C(=O)O)CCC[C@]21C | 15 to 20 (≈ 35.4 to 47.2 µM) | – | – | – | – | –
8 | C=CCON=C(c1ccc(Cl)cc1Cl)c1cc2c(cc1C(C)C)CC[C@H]1[C@](C)(C(=O)O)CCC[C@]21C | 1.56 to 3.13 (≈ 2.95 to 5.92 µM) | > 25 | 12.5 to 25 (≈ 23.7 to 47.3 µM) | 1.56 to 3.13 (≈ 2.95 to 5.92 µM) | 12.5 (≈ 23.7 µM) | > 25
9 | C#CCON=C(c1cc2c(cc1C(C)C)CC[C@H]1[C@](C)(C(=O)O)CCC[C@]21C)C1CCCCC1 | > 50 | – | – | – | – | –
10 | C#CCON=C(c1ccccc1)c1cc2c(cc1C(C)C)CC[C@H]1[C@](C)(C(=O)O)CCC[C@]21C | 2.5 (≈ 5.46 µM) | 3.13 to 6.25 (≈ 6.84 to 13.7 µM) | 3.13 (≈ 6.84 µM) | 1.56 to 2.5 (≈ 3.41 to 5.46 µM) | 3.13 to 6.25 (≈ 6.84 to 13.7 µM) | 6.25 to 12.5 (≈ 13.7 to 27.3 µM)
11 | CON=C(c1cccc(C(F)(F)F)c1)c1cc2c(cc1C(C)C)CC[C@H]1[C@](C)(C(=O)O)CCC[C@]21C | 1.56 to 3.13 (≈ 3.11 to 6.24 µM) | > 25 | > 25 | > 25 | > 25 | > 25

More lines, main results first:

Row | MIC (Staphylococcus aureus [1]) [µg/mL] | Compound | MIC (Staphylococcus aureus [2]) [µg/mL] | MIC (Staphylococcus aureus [3]) [µg/mL] | MIC (Staphylococcus aureus [4]) [µg/mL] | MIC (Staphylococcus aureus [5]) [µg/mL] | MIC (Staphylococcus aureus [6]) [µg/mL]
12 | > 50 | C#CCON=C(c1ccc(C(F)(F)F)cc1)c1cc2c(cc1C(C)C)CC[C@H]1[C@](C)(C(=O)O)CCC[C@]21C | – | – | – | – | –
13 | > 50 | CC(C)c1cc2c(cc1C(=NOCc1ccccc1)c1ccccc1)[C@@]1(C)CCC[C@@](C)(C(=O)O)[C@@H]1CC2 | – | – | – | – | –
14 | > 50 | C#CCO/N=C(\C)c1cc2c(cc1C(C)C)CC[C@H]1[C@](C)(C(=O)O)CCC[C@]21C | – | – | – | – | –
15 | > 50 | C=CCON=C(c1ccc(C(F)(F)F)cc1)c1cc2c(cc1C(C)C)CC[C@H]1[C@](C)(C(=O)O)CCC[C@]21C | – | – | – | – | –
16 | > 50 | C/C(=N\O)c1cc2c(cc1C(C)C)CC[C@H]1[C@](C)(C(=O)O)CCC[C@]21C | – | – | – | – | –
17 | 10 to 12.5 (≈ 23.8 to 29.8 µM) | CC(C)c1cc2c(cc1C(=NO)c1ccccc1)[C@@]1(C)CCC[C@@](C)(C(=O)O)[C@@H]1CC2 | – | – | – | – | –
18 | 10 to 12.5 (≈ 23.5 to 29.4 µM) | C=CCON=C(CCC)c1cc2c(cc1C(C)C)CC[C@H]1[C@](C)(C(=O)O)CCC[C@]21C | – | – | – | – | –
19 | 30 to 40 (≈ 75.1 to 100 µM) | CO/N=C(/c1cc2c(cc1C(C)C)CC[C@H]1[C@](C)(C(=O)O)CCC[C@]21C)C(C)C | – | – | – | – | –
20 | 30 to 40 (≈ 75.5 to 101 µM) | C=CCO/N=C(\C)c1cc2c(cc1C(C)C)CC[C@H]1[C@](C)(C(=O)O)CCC[C@]21C | – | – | – | – | –
21 | 40 to 50 (≈ 104 to 130 µM) | CCCC(=NO)c1cc2c(cc1C(C)C)CC[C@H]1[C@](C)(C(=O)O)CCC[C@]21C | – | – | – | – | –
22 | 10 to 12.5 (≈ 23.6 to 29.5 µM) | C#CCON=C(c1cc2c(cc1C(C)C)CC[C@H]1[C@](C)(C(=O)O)CCC[C@]21C)C(C)C | – | – | – | – | –
23 | 6.25 to 12.5 (≈ 14.7 to 29.4 µM) | CC(C)c1cc2c(cc1C(=NO)c1cccs1)[C@@]1(C)CCC[C@@](C)(C(=O)O)[C@@H]1CC2 | – | – | – | – | –
24 | 20 to 25 (≈ 48.8 to 61 µM) | C#CCON=C(CC)c1cc2c(cc1C(C)C)CC[C@H]1[C@](C)(C(=O)O)CCC[C@]21C | – | – | – | – | –
25 | > 50 | CON=C(c1ccc(C(F)(F)F)cc1)c1cc2c(cc1C(C)C)CC[C@H]1[C@](C)(C(=O)O)CCC[C@]21C | – | – | – | – | –
